Measurements taken from the kinase profiling compilation of Christmann-Franck et al. (2016).

Legend:
Assay in all cases: radiometric filter-binding kinase assay, Kinase HotSpot
Details in all cases: compound 0.5 µM; ATP 10 µM
RPS6KA4 KD2 (human) = RPS6KA4 KD2 (human) (UniProt O75676)
HIPK1 (human) = HIPK1 (human) (UniProt Q86Z02)
FES (human) = FES (human) (UniProt P07332)
MAPKAPK5 (human) = MAPKAPK5 (human) (UniProt Q8IW41)
PAK4 (human) = PAK4 (human) (UniProt O96013)
DDR2 (human) = DDR2 (human) (UniProt Q16832)
STK11 (human) = STK11 (human) (UniProt Q15831)
MELK (human) = MELK (human) (UniProt Q14680)
TEC (human) = TEC (human) (UniProt P42680)
PDGFRB (human) = PDGFRB (human) (UniProt P09619)
LIMK1 (human) = LIMK1 (human) (UniProt P53667)
PIM3 (human) = PIM3 (human) (UniProt Q86V86)
DAPK2 (human) = DAPK2 (human) (UniProt Q9UIK4)
SLK (human) = SLK (human) (UniProt Q9H2G2)
PRKCE (human) = PRKCE (human) (UniProt Q02156)
AKT1 (human) = AKT1 (human) (UniProt P31749)
JAK2 JH1 JH2 (human) = JAK2 JH1 JH2 (human) (UniProt O60674)
BLK (human) = BLK (human) (UniProt P51451)
NTRK1 (human) = NTRK1 (human) (UniProt P04629)
PTK2 (human) = PTK2 (human) (UniProt Q05397)
GRK7 (human) = GRK7 (human) (UniProt Q8WTQ7)
CAMK2B (human) = CAMK2B (human) (UniProt Q13554)
TXK (human) = TXK (human) (UniProt P42681)
MAPK3 (human) = MAPK3 (human) (UniProt P27361)
RPS6KA5 KD2 (human) = RPS6KA5 KD2 (human) (UniProt O75582)
DSTYK (human) = DSTYK (human) (UniProt Q6XUX3)
PDPK1 (human) = PDPK1 (human) (UniProt O15530)
MAP2K1 (human) = MAP2K1 (human) (UniProt Q02750)
[1] = molecular target: TYK2 JH1 catalytic (human) (UniProt P29597)
PRKD2 (human) = PRKD2 (human) (UniProt Q9BZL6)
JAK3 JH1 JH2 (human) = JAK3 JH1 JH2 (human) (UniProt P52333)
CDK5 CDK5R1 p25 (human) = CDK5 CDK5R1 p25 (human) (UniProt Q00535+Q15078)
CDK2 CCNA2 (human) = CDK2 CCNA2 (human) (UniProt P24941+P20248)
PHKG2 (human) = PHKG2 (human) (UniProt P15735)
CSNK1G3 (human) = CSNK1G3 (human) (UniProt Q9Y6M4)
PAK3 (human) = PAK3 (human) (UniProt O75914)
FLT3 (human) = FLT3 (human) (UniProt P36888)
PDGFRA (human) = PDGFRA (human) (UniProt P16234)
CAMKK1 (human) = CAMKK1 (human) (UniProt Q8N5S9)
ITK (human) = ITK (human) (UniProt Q08881)
MAPKAPK2 (human) = MAPKAPK2 (human) (UniProt P49137)
FGFR1 (human) = FGFR1 (human) (UniProt P11362)

Chain of LIMK1 (human) (P53667 whole entry, looked up): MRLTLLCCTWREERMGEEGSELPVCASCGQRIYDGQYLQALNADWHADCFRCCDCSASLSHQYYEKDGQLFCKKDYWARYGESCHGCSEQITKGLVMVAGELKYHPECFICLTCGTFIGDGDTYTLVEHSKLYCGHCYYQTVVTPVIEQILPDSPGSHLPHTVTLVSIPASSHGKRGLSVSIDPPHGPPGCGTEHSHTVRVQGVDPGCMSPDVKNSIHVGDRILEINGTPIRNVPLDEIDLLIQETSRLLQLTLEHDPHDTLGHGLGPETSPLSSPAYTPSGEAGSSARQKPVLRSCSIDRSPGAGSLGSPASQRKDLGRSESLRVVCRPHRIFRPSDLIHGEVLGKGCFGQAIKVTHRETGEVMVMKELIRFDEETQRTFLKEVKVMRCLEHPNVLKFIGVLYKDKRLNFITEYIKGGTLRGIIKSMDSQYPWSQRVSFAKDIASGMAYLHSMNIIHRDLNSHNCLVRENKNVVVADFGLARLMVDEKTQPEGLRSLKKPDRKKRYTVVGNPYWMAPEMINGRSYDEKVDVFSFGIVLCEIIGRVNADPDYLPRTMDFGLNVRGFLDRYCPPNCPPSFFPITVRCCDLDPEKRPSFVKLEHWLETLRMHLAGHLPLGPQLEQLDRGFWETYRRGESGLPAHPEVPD
Chain of CAMKK1 (human) (Q8N5S9 whole entry, looked up): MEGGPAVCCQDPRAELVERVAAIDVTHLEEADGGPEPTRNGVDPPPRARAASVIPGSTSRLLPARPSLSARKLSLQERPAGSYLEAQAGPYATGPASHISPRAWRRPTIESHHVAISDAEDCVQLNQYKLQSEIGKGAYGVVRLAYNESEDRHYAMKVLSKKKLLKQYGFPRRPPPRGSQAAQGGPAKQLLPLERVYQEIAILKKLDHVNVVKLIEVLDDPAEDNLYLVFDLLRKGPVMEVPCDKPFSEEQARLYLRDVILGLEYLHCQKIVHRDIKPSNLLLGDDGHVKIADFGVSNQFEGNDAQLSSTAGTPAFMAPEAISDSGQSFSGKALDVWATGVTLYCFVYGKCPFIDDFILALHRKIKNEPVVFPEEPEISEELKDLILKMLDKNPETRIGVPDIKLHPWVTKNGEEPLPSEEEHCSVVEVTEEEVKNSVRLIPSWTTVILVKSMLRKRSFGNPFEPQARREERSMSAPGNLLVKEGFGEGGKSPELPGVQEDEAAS
Chain of MAPK3 (human) (P27361 whole entry, looked up): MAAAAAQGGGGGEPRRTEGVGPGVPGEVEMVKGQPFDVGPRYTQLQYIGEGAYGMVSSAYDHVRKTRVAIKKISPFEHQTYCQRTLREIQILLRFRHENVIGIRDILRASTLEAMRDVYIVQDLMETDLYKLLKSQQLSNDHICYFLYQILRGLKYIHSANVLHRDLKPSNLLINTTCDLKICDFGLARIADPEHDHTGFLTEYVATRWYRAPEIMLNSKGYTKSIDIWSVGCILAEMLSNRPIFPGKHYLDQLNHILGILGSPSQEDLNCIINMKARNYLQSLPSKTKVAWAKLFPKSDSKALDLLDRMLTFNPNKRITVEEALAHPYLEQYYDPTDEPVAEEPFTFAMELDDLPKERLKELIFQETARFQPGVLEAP
Chain of PDGFRA (human) (P16234 whole entry, looked up): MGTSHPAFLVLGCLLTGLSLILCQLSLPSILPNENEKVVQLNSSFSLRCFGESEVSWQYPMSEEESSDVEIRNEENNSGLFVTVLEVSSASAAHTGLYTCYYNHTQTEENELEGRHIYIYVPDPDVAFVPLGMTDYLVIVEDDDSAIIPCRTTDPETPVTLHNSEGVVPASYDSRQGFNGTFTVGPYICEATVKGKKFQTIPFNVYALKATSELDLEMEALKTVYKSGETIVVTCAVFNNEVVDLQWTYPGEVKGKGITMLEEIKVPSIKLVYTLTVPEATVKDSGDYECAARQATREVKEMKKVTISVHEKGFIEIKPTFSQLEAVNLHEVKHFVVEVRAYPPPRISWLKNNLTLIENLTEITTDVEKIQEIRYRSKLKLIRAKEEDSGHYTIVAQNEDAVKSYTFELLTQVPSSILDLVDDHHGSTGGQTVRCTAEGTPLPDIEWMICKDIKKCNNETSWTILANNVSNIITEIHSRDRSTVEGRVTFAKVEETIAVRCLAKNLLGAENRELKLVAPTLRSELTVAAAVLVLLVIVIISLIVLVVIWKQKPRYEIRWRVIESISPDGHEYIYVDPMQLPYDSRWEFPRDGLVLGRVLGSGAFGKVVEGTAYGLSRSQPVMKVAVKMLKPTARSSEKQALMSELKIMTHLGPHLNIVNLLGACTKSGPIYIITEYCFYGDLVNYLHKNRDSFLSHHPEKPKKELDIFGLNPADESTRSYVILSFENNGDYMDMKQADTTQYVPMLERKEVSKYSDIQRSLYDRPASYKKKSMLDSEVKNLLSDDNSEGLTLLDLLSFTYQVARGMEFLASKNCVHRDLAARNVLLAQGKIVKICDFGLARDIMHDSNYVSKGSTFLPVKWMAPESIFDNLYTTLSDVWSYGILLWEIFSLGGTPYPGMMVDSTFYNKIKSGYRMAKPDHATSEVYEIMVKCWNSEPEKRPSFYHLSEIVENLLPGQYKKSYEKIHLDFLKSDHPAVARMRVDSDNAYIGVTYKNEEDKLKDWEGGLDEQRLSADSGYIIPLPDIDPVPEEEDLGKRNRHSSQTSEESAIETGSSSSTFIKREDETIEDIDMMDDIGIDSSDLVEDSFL
Chain of NTRK1 (human) (P04629 whole entry, looked up): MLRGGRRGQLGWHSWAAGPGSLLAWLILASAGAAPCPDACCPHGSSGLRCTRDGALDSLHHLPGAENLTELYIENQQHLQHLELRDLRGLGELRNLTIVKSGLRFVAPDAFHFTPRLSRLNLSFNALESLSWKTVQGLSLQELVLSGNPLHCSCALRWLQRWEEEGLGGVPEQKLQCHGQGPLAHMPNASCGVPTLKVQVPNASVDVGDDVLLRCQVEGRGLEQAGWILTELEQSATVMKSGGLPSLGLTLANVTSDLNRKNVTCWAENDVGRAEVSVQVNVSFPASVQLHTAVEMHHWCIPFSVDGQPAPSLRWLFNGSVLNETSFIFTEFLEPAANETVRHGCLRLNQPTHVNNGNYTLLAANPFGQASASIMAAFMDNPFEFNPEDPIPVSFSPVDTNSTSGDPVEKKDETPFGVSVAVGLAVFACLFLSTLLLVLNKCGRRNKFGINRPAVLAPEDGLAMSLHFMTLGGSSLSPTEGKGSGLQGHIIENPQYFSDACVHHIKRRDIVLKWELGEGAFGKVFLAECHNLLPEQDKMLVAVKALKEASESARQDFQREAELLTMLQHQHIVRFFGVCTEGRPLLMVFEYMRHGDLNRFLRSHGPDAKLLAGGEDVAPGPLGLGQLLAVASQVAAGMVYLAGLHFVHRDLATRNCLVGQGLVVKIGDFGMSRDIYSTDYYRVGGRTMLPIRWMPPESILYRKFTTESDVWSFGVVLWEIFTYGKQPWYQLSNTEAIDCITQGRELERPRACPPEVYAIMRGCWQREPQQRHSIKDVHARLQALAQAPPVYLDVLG
Chain of TEC (human) (P42680 whole entry, looked up): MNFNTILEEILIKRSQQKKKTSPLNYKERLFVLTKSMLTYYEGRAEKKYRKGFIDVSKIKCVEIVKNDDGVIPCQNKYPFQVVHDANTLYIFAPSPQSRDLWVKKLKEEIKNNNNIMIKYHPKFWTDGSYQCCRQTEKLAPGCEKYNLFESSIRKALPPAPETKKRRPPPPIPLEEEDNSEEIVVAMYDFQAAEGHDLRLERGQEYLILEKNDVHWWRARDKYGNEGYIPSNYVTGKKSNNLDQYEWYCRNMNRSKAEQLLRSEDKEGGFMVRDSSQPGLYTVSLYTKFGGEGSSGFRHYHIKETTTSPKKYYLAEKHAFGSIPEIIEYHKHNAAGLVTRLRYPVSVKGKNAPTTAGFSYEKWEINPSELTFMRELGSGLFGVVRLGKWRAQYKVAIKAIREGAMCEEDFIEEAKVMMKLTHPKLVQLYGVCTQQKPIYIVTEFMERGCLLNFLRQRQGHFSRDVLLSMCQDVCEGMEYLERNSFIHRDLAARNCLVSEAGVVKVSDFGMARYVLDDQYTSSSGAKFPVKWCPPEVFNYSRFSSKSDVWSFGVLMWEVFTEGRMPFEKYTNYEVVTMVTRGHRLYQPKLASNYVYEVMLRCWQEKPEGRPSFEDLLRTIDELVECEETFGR
Chain of MAPKAPK5 (human) (Q8IW41 whole entry, looked up): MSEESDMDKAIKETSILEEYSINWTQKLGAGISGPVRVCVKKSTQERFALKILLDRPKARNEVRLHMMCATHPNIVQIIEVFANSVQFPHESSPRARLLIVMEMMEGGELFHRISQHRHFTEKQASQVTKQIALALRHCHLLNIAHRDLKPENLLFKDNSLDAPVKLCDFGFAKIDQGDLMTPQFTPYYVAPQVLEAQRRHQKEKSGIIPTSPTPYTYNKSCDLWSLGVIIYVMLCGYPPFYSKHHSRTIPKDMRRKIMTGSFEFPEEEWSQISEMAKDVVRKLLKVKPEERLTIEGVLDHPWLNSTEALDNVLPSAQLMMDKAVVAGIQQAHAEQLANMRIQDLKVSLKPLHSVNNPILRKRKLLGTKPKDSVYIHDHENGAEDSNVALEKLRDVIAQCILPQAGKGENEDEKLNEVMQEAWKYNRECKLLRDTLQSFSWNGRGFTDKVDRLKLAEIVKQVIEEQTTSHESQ
Chain of TXK (human) (P42681 whole entry, looked up): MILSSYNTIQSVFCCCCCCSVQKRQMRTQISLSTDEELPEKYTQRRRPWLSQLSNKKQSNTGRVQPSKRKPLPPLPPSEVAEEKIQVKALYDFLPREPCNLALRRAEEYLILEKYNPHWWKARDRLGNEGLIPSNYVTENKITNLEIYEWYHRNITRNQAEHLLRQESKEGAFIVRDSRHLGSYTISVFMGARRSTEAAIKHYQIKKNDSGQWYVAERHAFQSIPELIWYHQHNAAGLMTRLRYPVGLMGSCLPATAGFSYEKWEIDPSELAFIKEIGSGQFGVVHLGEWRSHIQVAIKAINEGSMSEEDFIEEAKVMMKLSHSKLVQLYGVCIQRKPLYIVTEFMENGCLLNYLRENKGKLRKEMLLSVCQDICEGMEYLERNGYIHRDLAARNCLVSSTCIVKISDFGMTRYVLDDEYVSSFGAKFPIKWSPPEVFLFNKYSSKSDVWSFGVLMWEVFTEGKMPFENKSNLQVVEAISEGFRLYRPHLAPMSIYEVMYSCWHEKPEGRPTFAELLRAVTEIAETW

CN(C)C[C@H]1CCn2c(c(C3=C(c4cn(C)c5ccccc45)C(=O)NC3=O)c3ccccc32)C1
residual activity (RPS6KA4 KD2 (human)): 33.3% | residual activity (HIPK1 (human)): 101% | residual activity (FES (human)): 102% | residual activity (MAPKAPK5 (human)): 95.4% | residual activity (PAK4 (human)): 104% | residual activity (DDR2 (human)): 96% | residual activity (STK11 (human)): 91.9% | residual activity (MELK (human)): 96.4% | residual activity (TEC (human)): 108% | residual activity (PDGFRB (human)): 102% | residual activity (LIMK1 (human)): 89.4% | residual activity (PIM3 (human)): 83.1% | residual activity (DAPK2 (human)): 90.4% | residual activity (SLK (human)): 83.1% | residual activity (PRKCE (human)): 2.73% | residual activity (AKT1 (human)): 98.7% | residual activity (JAK2 JH1 JH2 (human)): 98.6% | residual activity (BLK (human)): 103% | residual activity (NTRK1 (human)): 108% | residual activity (PTK2 (human)): 95.9% | residual activity (GRK7 (human)): 40% | residual activity (CAMK2B (human)): 96.9% | residual activity (TXK (human)): 103% | residual activity (MAPK3 (human)): 102% | residual activity (RPS6KA5 KD2 (human)): 24.8% | residual activity (DSTYK (human)): 89.4% | residual activity (PDPK1 (human)): 97% | residual activity (MAP2K1 (human)): 98.8% | residual activity [1]: 104% | residual activity (PRKD2 (human)): 97.6% | residual activity (JAK3 JH1 JH2 (human)): 89.4% | residual activity (CDK5 CDK5R1 p25 (human)): 84.7% | residual activity (CDK2 CCNA2 (human)): 76.2% | residual activity (PHKG2 (human)): 104% | residual activity (CSNK1G3 (human)): 104% | residual activity (PAK3 (human)): 102% | residual activity (FLT3 (human)): 37.1% | residual activity (PDGFRA (human)): 93.1% | residual activity (CAMKK1 (human)): 116% | residual activity (ITK (human)): 94.9% | residual activity (MAPKAPK2 (human)): 102% | residual activity (FGFR1 (human)): 87.8%

CC(C)[C@H](CO)Nc1nc(Nc2cc(N)cc(Cl)c2)c2ncn(C(C)C)c2n1
residual activity (RPS6KA4 KD2 (human)): 89.3% | residual activity (HIPK1 (human)): 99.2% | residual activity (FES (human)): 69.2% | residual activity (MAPKAPK5 (human)): 95.8% | residual activity (PAK4 (human)): 102% | residual activity (DDR2 (human)): 128% | residual activity (STK11 (human)): 60.3% | residual activity (MELK (human)): 51.5% | residual activity (TEC (human)): 130% | residual activity (PDGFRB (human)): 98.1% | residual activity (LIMK1 (human)): 107% | residual activity (PIM3 (human)): 93% | residual activity (DAPK2 (human)): 101% | residual activity (SLK (human)): 39.8% | residual activity (PRKCE (human)): 105% | residual activity (AKT1 (human)): 117% | residual activity (JAK2 JH1 JH2 (human)): 100% | residual activity (BLK (human)): 79.6% | residual activity (NTRK1 (human)): 45.4% | residual activity (PTK2 (human)): 59.5% | residual activity (GRK7 (human)): 79.3% | residual activity (CAMK2B (human)): 98.2% | residual activity (TXK (human)): 42.5% | residual activity (MAPK3 (human)): 106% | residual activity (RPS6KA5 KD2 (human)): 103% | residual activity (DSTYK (human)): 93.1% | residual activity (PDPK1 (human)): 106% | residual activity (MAP2K1 (human)): 91.3% | residual activity [1]: 57.9% | residual activity (PRKD2 (human)): 103% | residual activity (JAK3 JH1 JH2 (human)): 108% | residual activity (CDK5 CDK5R1 p25 (human)): 3.31% | residual activity (PHKG2 (human)): 105% | residual activity (CSNK1G3 (human)): 13.4% | residual activity (PAK3 (human)): 101% | residual activity (FLT3 (human)): 8.35% | residual activity (PDGFRA (human)): 89.4% | residual activity (CAMKK1 (human)): 86.8% | residual activity (ITK (human)): 80.2% | residual activity (MAPKAPK2 (human)): 92.8% | residual activity (FGFR1 (human)): 76.7%

Cc1nc2cc3nc(-c4cccs4)cnc3cc2n1C
residual activity (RPS6KA4 KD2 (human)): 88.4% | residual activity (HIPK1 (human)): 103% | residual activity (FES (human)): 106% | residual activity (MAPKAPK5 (human)): 100% | residual activity (PAK4 (human)): 126% | residual activity (DDR2 (human)): 108% | residual activity (STK11 (human)): 89.6% | residual activity (MELK (human)): 95.6% | residual activity (TEC (human)): 158% | residual activity (PDGFRB (human)): 63.3% | residual activity (LIMK1 (human)): 112% | residual activity (PIM3 (human)): 91.2% | residual activity (DAPK2 (human)): 94.1% | residual activity (SLK (human)): 94.5% | residual activity (PRKCE (human)): 108% | residual activity (AKT1 (human)): 114% | residual activity (JAK2 JH1 JH2 (human)): 106% | residual activity (BLK (human)): 99.8% | residual activity (NTRK1 (human)): 113% | residual activity (PTK2 (human)): 117% | residual activity (GRK7 (human)): 96.6% | residual activity (CAMK2B (human)): 101% | residual activity (TXK (human)): 102% | residual activity (MAPK3 (human)): 117% | residual activity (RPS6KA5 KD2 (human)): 109% | residual activity (DSTYK (human)): 106% | residual activity (PDPK1 (human)): 106% | residual activity (MAP2K1 (human)): 89.7% | residual activity [1]: 102% | residual activity (PRKD2 (human)): 106% | residual activity (JAK3 JH1 JH2 (human)): 107% | residual activity (CDK5 CDK5R1 p25 (human)): 99.3% | residual activity (CDK2 CCNA2 (human)): 104% | residual activity (PHKG2 (human)): 102% | residual activity (CSNK1G3 (human)): 96.1% | residual activity (PAK3 (human)): 98.8% | residual activity (FLT3 (human)): 27.5% | residual activity (PDGFRA (human)): 23.8% | residual activity (CAMKK1 (human)): 127% | residual activity (ITK (human)): 96.7% | residual activity (MAPKAPK2 (human)): 95.4% | residual activity (FGFR1 (human)): 88.8%

O=C(CCCc1ccc(-c2ccccc2F)cc1)Nc1ccc(O)cc1
residual activity (RPS6KA4 KD2 (human)): 103% | residual activity (HIPK1 (human)): 105% | residual activity (FES (human)): 100% | residual activity (MAPKAPK5 (human)): 91.4% | residual activity (PAK4 (human)): 95.4% | residual activity (DDR2 (human)): 98.1% | residual activity (STK11 (human)): 97.4% | residual activity (MELK (human)): 95.5% | residual activity (TEC (human)): 86% | residual activity (PDGFRB (human)): 98.2% | residual activity (LIMK1 (human)): 106% | residual activity (PIM3 (human)): 104% | residual activity (DAPK2 (human)): 106% | residual activity (SLK (human)): 102% | residual activity (PRKCE (human)): 103% | residual activity (AKT1 (human)): 97.7% | residual activity (JAK2 JH1 JH2 (human)): 98.5% | residual activity (BLK (human)): 101% | residual activity (NTRK1 (human)): 103% | residual activity (PTK2 (human)): 102% | residual activity (GRK7 (human)): 109% | residual activity (CAMK2B (human)): 99.9% | residual activity (TXK (human)): 97.7% | residual activity (MAPK3 (human)): 132% | residual activity (RPS6KA5 KD2 (human)): 95.2% | residual activity (DSTYK (human)): 103% | residual activity (PDPK1 (human)): 112% | residual activity (MAP2K1 (human)): 104% | residual activity [1]: 96.5% | residual activity (PRKD2 (human)): 97.6% | residual activity (JAK3 JH1 JH2 (human)): 92.1% | residual activity (CDK5 CDK5R1 p25 (human)): 94.6% | residual activity (CDK2 CCNA2 (human)): 92.7% | residual activity (PHKG2 (human)): 102% | residual activity (CSNK1G3 (human)): 104% | residual activity (PAK3 (human)): 104% | residual activity (FLT3 (human)): 104% | residual activity (PDGFRA (human)): 96.5% | residual activity (ITK (human)): 85% | residual activity (MAPKAPK2 (human)): 103% | residual activity (FGFR1 (human)): 98%
